#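 48-hour exposure; five concentrations; linearly interpolated endpoints. Here, GI50 denotes the concentration required for 50% inhibition of growth. At the TGI there is no net growth.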
# Columns and labels:
# Experiment in all cases: inhibition of tumour cell growth, NCI panel, 48 h
# [1] = test system: MDA-MB-231 breast
# [2] = test system: MOLT-4 leukemia
# [3] = test system: OVCAR-4 ovarian
# [4] = test system: UACC-62 melanoma
# [5] = test system: SK-MEL-2 melanoma
# [6] = test system: HT29 colon
# [7] = test system: NCI-H522 lung
# [8] = test system: IGROV1 ovarian
# [9] = test system: SK-MEL-5 melanoma
# [10] = test system: NCI-H460 lung
SMILES,TGI [1],TGI [2],TGI [3],TGI [4],TGI [5],TGI [6],TGI [7],TGI [8],TGI [9],TGI [10],GI50 [1],GI50 [2],GI50 [3],GI50 [4],GI50 [5],GI50 [6],GI50 [7],GI50 [8],GI50 [9],GI50 [10]
COc1cc2c3cc1Oc1c(OC)c(OC)cc4c1C(=NCC4)Cc1ccc(cc1)Oc1cc(ccc1O)C[C@H]3N(C)CC2,27.8 µM,66.2 µM,40.7 µM,30.3 µM,31.1 µM,23.3 µM,25.3 µM,94.4 µM,24.6 µM,39.9 µM,,,,,,,,,,
CC1=CC(C)=NN=C(N)N1S(=O)(=O)c1cc(C)c(Cl)cc1SCc1ccccc1,> 100 µM,> 100 µM,> 100 µM,> 100 µM,> 100 µM,> 100 µM,> 100 µM,> 100 µM,> 100 µM,> 100 µM,> 100 µM,6.18 µM,11.5 µM,12.4 µM,37.2 µM,24.5 µM,7.78 µM,46 µM,40.7 µM,9.22 µM
O=C1C(=C(C(F)(F)Cl)C(F)(F)Cl)C2CCC1C2 (stereo not given),3.07 µM,> 3.53 µM,8.31 µM,4.4 µM,4.21 µM,5.57 µM,0.56 µM,3.62 µM,3.11 µM,> 7.96 µM,,,,,,,,,,
CCCCCCCCCCCCCCCCCc1nccn1CCOCCO,9.29 µg/mL,12.3 µg/mL,9.62 µg/mL,9.87 µg/mL,14 µg/mL,10.1 µg/mL,10.2 µg/mL,13.2 µg/mL,9.61 µg/mL,11.9 µg/mL,4.4 µg/mL,5.5 µg/mL,4.46 µg/mL,4.99 µg/mL,7.58 µg/mL,4.59 µg/mL,4.84 µg/mL,6.03 µg/mL,4.87 µg/mL,5.66 µg/mL
CCCCN1CCCC[C@@H]1C(=O)N[C@H](C(=O)N(C)[C@H](C[C@@H](OC(C)=O)c1nc(C(=O)NC2CCC(C(=O)OC)CC2)cs1)C(C)C)C(C)C (stereo not given in full),18.2 µM,> 25 µM,> 25 µM,> 25 µM,> 25 µM,13.6 µM,7.04 µM,> 25 µM,> 25 µM,> 25 µM,1.89 µM,1.18 µM,3.95 µM,1.06 µM,5.28 µM,0.96 µM,0.897 µM,1.88 µM,1.22 µM,1.08 µM
O=C(CC1(O)C(=O)N(Cc2ccccc2)c2ccc(Cl)cc21)c1ccc(C(=O)NCC2CCC3(CC2)OOC2(CCCCC2)OO3)cc1 (stereo not given),0.988 µM,4.56 µM,11.5 µM,77.7 µM,4.41 µM,0.544 µM,0.373 µM,0.444 µM,4.56 µM,0.491 µM,0.327 µM,1.59 µM,2.45 µM,6.26 µM,1.87 µM,0.236 µM,0.169 µM,0.197 µM,1.89 µM,0.231 µM
CN(C)CCN1C(=O)c2cccc3cc([N+](=O)[O-])cc(c23)C1=O,14.6 µM,2.04 µM,6.37 µM,1.03 µM,3.14 µM,2.8 µM,2.12 µM,4.49 µM,1.37 µM,0.384 µM,,,,,,,,,,
Oc1ccc(Nc2ccc3ccccc3c2)cc1,27.8 µM,32.1 µM,> 100 µM,18 µM,46 µM,65.8 µM,27.7 µM,18 µM,11.2 µM,15.8 µM,4.06 µM,2.75 µM,8.64 µM,3.96 µM,15.3 µM,23 µM,8.99 µM,3.75 µM,3.11 µM,4.27 µM
O=C(CCl)NCCNc1nccc(Nc2ccc(S(=O)(=O)Nc3ccccn3)cc2)n1,9.98 µM,11.9 µM,25.3 µM,4.24 µM,7.83 µM,6.52 µM,3.98 µM,6.72 µM,2.94 µM,7.22 µM,2.9 µM,1.91 µM,3.1 µM,1.74 µM,2.33 µM,2.41 µM,1.61 µM,2.12 µM,1.53 µM,2.39 µM
